≈ marks a conversion by molar mass, not a printed value. Entries after “also recorded” stand apart in the source; their conditions may differ.
What was measured:
[1] = Dynamic vapour sorption (DVS); type: physicochemical
Procedure: DVS (SPS): Sorption Measurement System SPS11-100n. The sample was placed in an Al crucible, and the sample was allowed to equilibrate at a given r.h. before starting a predefined humidity program. The used measurement program can be recognized in the corresponding figures (blue line).
In order to examine the behaviour of Batch 1 in the presence of variable water vapour pressure, the sample was analyzed by DVS. […] The sample was conditioned at 50% r.h. before starting a pre-defined humidity program with a scanning rate of 5% r.h. change per hour. Below 50% r.h. a continuous mass loss is observed. […] At relative humidities above 84% r.h. an increased water uptake is observed. At 95% r.h. no equilibrium is reached. This is typical for amorphous material. At the end of the measurement (end humidity 50% r.h.) the sample has a 0.6% higher mass as the starting material. The sample was checked by FT-Raman (pre- and post DVS measurements).

[2] = Thermodynamic stability of polymorphic forms (suspension equilibration); type: physicochemical
Procedure: Polymorphic Form 3 has a melting signal at 200° C. as measured by differential scanning calorimetry and is stable at temperatures above about 60-65° C.
A mixture with similar ratios of the products of Example 4, Experiment 15 (Form 1), Example 4, Experiment 9 (form 2+x) and Example 4, Experiment 6 (Form 2+Form 3) were suspended in acetonitrile and shaken for 13 days at 22° C. to give a product designated Product P24). The solid was recovered by filter centrifugation and characterized by PXRD. […] These signals could be assigned to (i) another crystalline form or (ii) the signals could not be detected for Product P24 because the diffractogram has a lower intensity.
Thus, after 13 days at 22° C. the PXRD corresponds to that of Form 2.

[3] = Solubility of polymorphic forms in simulated intestinal fluids by HPLC; type: physicochemical; conditions: for Solubility / pH of Saturated solution: 25° C., equilibrated 24 hours
Procedure: The solubility of Form 1, Form 2 and Form 3 was determined by HPLC in fasted state simulated intestinal fluid (FaSSIF) and fed state simulated intestinal fluid (FeSSIF) at 25° C. FaSSIF and FeSSIF were prepared from SIF powder, available at PHARES, Switzerland. Suspensions of […] were prepared and equilibrated for 24 hours at 25° C. The suspensions were filtered. The pH values of the resulting saturated solutions were measured. The filtrates were diluted and analyzed by HPLC using a general, unoptimized method. The values listed below are averages over multiple repetitions. Additionally Raman spectra of the recovered solids were recorded.

[4] = TG-FTIR thermogravimetry; type: physicochemical; conditions: 25° C. to 250° C., heating rate 10° C./min
Procedure: TG-FTIR: Thermogravimetric measurements were carried out with a Netzsch Thermo-Microbalance TG 209 coupled to a Bruker FTIR Spectrometer Vector 22 or IFS 28 (sample pans with a pinhole, N2 atmosphere, heating rate 10° C./min, range 25° C. up to 250° C.).
Batch 3 was analyzed by TG-FTIR in a temperature range of 25° C. to 250° C. and a heating rate of 10° C./min. […] Decomposition occurs above ˜160° C. Therefore the material is likely a non-solvated form.

[5] = target: T1, CRTH2 receptor (Homo sapiens, UniProt Q9Y5Y4); conditions: cited from earlier work
T1 sequence (Q9Y5Y4 1-395): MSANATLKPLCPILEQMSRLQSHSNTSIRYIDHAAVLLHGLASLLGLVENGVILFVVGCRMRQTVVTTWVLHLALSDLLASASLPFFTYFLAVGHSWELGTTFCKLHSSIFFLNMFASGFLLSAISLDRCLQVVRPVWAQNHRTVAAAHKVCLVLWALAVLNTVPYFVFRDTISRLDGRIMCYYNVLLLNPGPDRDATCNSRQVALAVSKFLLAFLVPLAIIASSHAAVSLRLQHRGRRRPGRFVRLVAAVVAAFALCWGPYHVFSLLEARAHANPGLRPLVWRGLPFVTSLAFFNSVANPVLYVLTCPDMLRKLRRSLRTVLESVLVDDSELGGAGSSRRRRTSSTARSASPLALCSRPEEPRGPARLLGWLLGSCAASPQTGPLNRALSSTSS

| SMILES | Temperature range of thermodynamic stability [2] | Solubility ([3]; FaSSIF) [µg/mL] | pH of Saturated solution ([3]; FaSSIF) | Solubility ([3]; FeSSIF) [µg/mL] | pH of Saturated solution ([3]; FeSSIF) | also measured |
| --- | --- | --- | --- | --- | --- | --- |
| Cc1c(Cc2cccnc2S(=O)(=O)c2ccc(F)cc2)c2cc(F)ccc2n1CC(=O)O [Batch 1, [5-fluoro-3-({2-[(4-fluorobenzene)sulfonyl]pyridin-3-yl}methyl)-2-methylindol-1-yl]-acetic acid] |  |  |  |  |  | Mass change at end of DVS measurement versus starting material ([1]; end humidity 50% r.h., 5% r.h. change per hour): 0.6%; Phase transition after DVS (FT-Raman pre- and post) ([1]; sample recovered from DVS): no phase transition |
| Cc1c(Cc2cccnc2S(=O)(=O)c2ccc(F)cc2)c2cc(F)ccc2n1CC(=O)O [Form 2, [5-fluoro-3-({2-[(4-fluorobenzene)sulfonyl]pyridin-3-yl}methyl)-2-methylindol-1-yl]-acetic acid] | 60-65 °C | 550 (≈ 1200 µM) | 6.1 | 350 (≈ 767 µM) | 5.0 | Most stable form after suspension equilibration of a mixture of forms ([2]; acetonitrile, 13 days at 22° C., PXRD): most stable form at room temperature |
| Cc1c(Cc2cccnc2S(=O)(=O)c2ccc(F)cc2)c2cc(F)ccc2n1CC(=O)O [Batch 3, [5-fluoro-3-({2-[(4-fluorobenzene)sulfonyl]pyridin-3-yl}methyl)-2-methylindol-1-yl]-acetic acid] |  |  |  |  |  | Decomposition temperature [4]: > 160 °C |
| Cc1c(Cc2cccnc2S(=O)(=O)c2ccc(F)cc2)c2cc(F)ccc2n1CC(=O)O [Compound 1, [5-fluoro-3-({2-[(4-fluorobenzene)sulfonyl]pyridin-3-yl}methyl)-2-methylindol-1-yl]-acetic acid] |  |  |  |  |  | CRTH2 antagonist activity [5]: has CRTH2 antagonist activity |
| Cc1c(Cc2cccnc2S(=O)(=O)c2ccc(F)cc2)c2cc(F)ccc2n1CC(=O)O [Form 1, [5-fluoro-3-({2-[(4-fluorobenzene)sulfonyl]pyridin-3-yl}methyl)-2-methylindol-1-yl]-acetic acid] | thermodynamically stable at high temperatures | 720 (≈ 1580 µM) | 5.7 | 1180 (≈ 2590 µM) | 4.9 |  |
| Cc1c(Cc2cccnc2S(=O)(=O)c2ccc(F)cc2)c2cc(F)ccc2n1CC(=O)O [Form 3, [5-fluoro-3-({2-[(4-fluorobenzene)sulfonyl]pyridin-3-yl}methyl)-2-methylindol-1-yl]-acetic acid] | 60-65 °C | 1310 (≈ 2870 µM) | 5.4 | 2120 (≈ 4640 µM) | 5.0 | Comparative solubility among crystalline forms ([3]; FaSSIF and FeSSIF): most soluble crystalline form; also recorded: more soluble in both FaSSIF and FeSSIF |
